The text below walks through data of PubChem BioAssay (NCI).

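Results reflect a 48-hour exposure of cells in 96-well plates to compound at five concentrations. GI50 marks 50% less growth. TGI denotes the concentration required for complete inhibition of growth.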

Test systems include RPMI-8226 leukemia; CCRF-CEM leukemia; PC-3 prostate; SK-MEL-28 melanoma; MCF7 breast; TK-10 renal; UO-31 renal; 786-0 renal; RXF 393 renal; U251 CNS.
What all share (test): growth of human tumour cells (NCI), 48 h

For the compound `COc1cc(/C=C2\C(=O)Nc3cccc(Cl)c32)cc(OC)c1OC`, the GI50 was 53.7 µM in the experiment with RPMI-8226 leukemia; 0.0529 µM with CCRF-CEM leukemia; more than 100 µM with PC-3 prostate; more than 100 µM in the experiment with SK-MEL-28 melanoma; more than 100 µM with MCF7 breast; more than 100 µM with TK-10 renal. Also, the GI50 in the experiment on UO-31 renal was more than 100 µM; with 786-0 renal, 41.8 µM; with RXF 393 renal, 8.79 µM; in the experiment on U251 CNS it was 41 µM. The TGI is more than 100 µM with RPMI-8226 leukemia; 0.527 µM in the experiment with CCRF-CEM leukemia; more than 100 µM in the experiment on PC-3 prostate; more than 100 µM with SK-MEL-28 melanoma; more than 100 µM in the experiment with MCF7 breast; more than 100 µM in the experiment with TK-10 renal. In addition, the TGI in the experiment on UO-31 renal is more than 100 µM; in the experiment on 786-0 renal, more than 100 µM; in the experiment with RXF 393 renal, 36.9 µM; with U251 CNS, more than 100 µM.
Turning to `CCOC(=O)c1cc(C(=O)c2cc(OC)c(OC)c(OC)c2)n2ccccc12`, the GI50 was 0.121 µM in the experiment on RPMI-8226 leukemia; 0.106 µM with CCRF-CEM leukemia; 0.105 µM with PC-3 prostate; 6.09 µM with SK-MEL-28 melanoma; 0.0606 µM with MCF7 breast; 11.6 µM in the experiment on TK-10 renal. Moreover, the GI50 with 786-0 renal was 0.739 µM; in the experiment with RXF 393 renal, 0.07 µM; in the experiment on U251 CNS, 0.0899 µM. Moreover, the TGI in the experiment on RPMI-8226 leukemia, with CCRF-CEM leukemia, in the experiment with PC-3 prostate, in the experiment with SK-MEL-28 melanoma, in the experiment with MCF7 breast and in the experiment on TK-10 renal was more than 100 µM each time. In addition, the TGI in the experiment on UO-31 renal is more than 100 µM; with 786-0 renal, more than 42.7 µM; in the experiment with RXF 393 renal, 0.707 µM; in the experiment on U251 CNS it was 38.6 µM.
In the case of `C=CC1=C(C)C2=NC1=CC1=NC(=CC3=C(C)C4=C(O)C(C(=O)OC)C(=C5NC(=C2)C(C)C5CCC(=O)OC)C4=N3)C(CC)=C1C` (centres undefined), the TGI in the experiment with RPMI-8226 leukemia, in the experiment with CCRF-CEM leukemia, in the experiment with PC-3 prostate, with SK-MEL-28 melanoma, in the experiment with MCF7 breast and in the experiment with TK-10 renal was more than 100 µM throughout. Further, the TGI in the experiment with UO-31 renal, in the experiment with 786-0 renal, in the experiment on RXF 393 renal and in the experiment on U251 CNS was more than 100 µM each time.
For `NC1=Nc2cc(OCCCN3Cc4ccccc4C3)c(OCC3CC3)cc2C12CCCC2`, the GI50 in the experiment on RPMI-8226 leukemia is 1.75 µM; in the experiment on CCRF-CEM leukemia, 2.45 µM; in the experiment with PC-3 prostate, 2.66 µM; with SK-MEL-28 melanoma it was 1.84 µM; in the experiment with MCF7 breast, 1.8 µM; in the experiment on TK-10 renal, 2.31 µM. Also, the GI50 was 1.49 µM in the experiment with UO-31 renal, 1.69 µM in the experiment on 786-0 renal, 1.34 µM with RXF 393 renal and 1.8 µM in the experiment with U251 CNS. Also, the TGI with RPMI-8226 leukemia came out at 4.51 µM; with CCRF-CEM leukemia it was 9.26 µM; in the experiment with PC-3 prostate, 12.7 µM; in the experiment with SK-MEL-28 melanoma it was 3.46 µM; with MCF7 breast it was 4.03 µM; with TK-10 renal, 8.16 µM. In addition, the TGI in the experiment with UO-31 renal is 3.14 µM; in the experiment on 786-0 renal it was 3.77 µM; in the experiment on RXF 393 renal, 3.58 µM; in the experiment with U251 CNS, 3.88 µM.
Regarding `CCNCCCn1c2c(c3ccc([N+](=O)[O-])cc3c1=O)C(=O)c1cc(OC)cnc1-2`, the GI50 was 0.0813 µM in the experiment with RPMI-8226 leukemia; 0.0366 µM in the experiment with CCRF-CEM leukemia; 0.249 µM in the experiment on PC-3 prostate; 0.227 µM in the experiment with SK-MEL-28 melanoma; 0.0186 µM in the experiment with MCF7 breast; 0.294 µM in the experiment on TK-10 renal. Also, the GI50 is 0.0327 µM with UO-31 renal, 0.0406 µM with 786-0 renal, 0.136 µM in the experiment on RXF 393 renal and 0.0329 µM in the experiment on U251 CNS. The TGI in the experiment with RPMI-8226 leukemia was found to be 0.976 µM; with CCRF-CEM leukemia it was 1.23 µM; in the experiment with PC-3 prostate, 8.67 µM; in the experiment with SK-MEL-28 melanoma it was 1.56 µM; in the experiment on MCF7 breast, 1.37 µM; in the experiment with TK-10 renal it was 1.47 µM. Moreover, the TGI turned out to be 0.176 µM with UO-31 renal, 0.31 µM with 786-0 renal, 0.464 µM in the experiment with RXF 393 renal and 0.186 µM in the experiment with U251 CNS.
`Cc1c(N=Cc2ccc(N(CCC#N)CCC#N)cc2)c(=O)n(-c2ccccc2)n1C`: the TGI in the experiment with RPMI-8226 leukemia is more than 100 µM; in the experiment with CCRF-CEM leukemia, more than 100 µM; in the experiment with PC-3 prostate, more than 100 µM; with SK-MEL-28 melanoma, more than 100 µM; with MCF7 breast, more than 100 µM; with TK-10 renal, 62.1 µM. The TGI is more than 100 µM with UO-31 renal, 90.3 µM in the experiment on 786-0 renal, 92.1 µM with RXF 393 renal and more than 100 µM in the experiment on U251 CNS.
Turning to `CC(C)Nc1ncc2cc(Oc3ccc(F)cc3F)c(=O)n(C)c2n1`, the GI50 is more than 25 µM with RPMI-8226 leukemia; more than 25 µM with CCRF-CEM leukemia; more than 25 µM with PC-3 prostate; more than 25 µM in the experiment with SK-MEL-28 melanoma; more than 25 µM in the experiment on MCF7 breast; 15.8 µM with TK-10 renal. The GI50 is 5.17 µM in the experiment on UO-31 renal, more than 25 µM in the experiment on 786-0 renal, 12.7 µM with RXF 393 renal and more than 25 µM in the experiment on U251 CNS. Besides, the TGI with RPMI-8226 leukemia, with CCRF-CEM leukemia, with PC-3 prostate, in the experiment with SK-MEL-28 melanoma, in the experiment on MCF7 breast and in the experiment on TK-10 renal was more than 25 µM throughout. The TGI is more than 13.4 µM in the experiment with UO-31 renal, more than 25 µM in the experiment on 786-0 renal, more than 25 µM in the experiment on RXF 393 renal and more than 25 µM with U251 CNS.
For the compound `COc1ccc(N(/C=C/C(=O)C(F)(F)F)CC(=O)c2ccc(Cl)c(Cl)c2)cc1`, the GI50 in the experiment on RPMI-8226 leukemia is 5.56 µM; with CCRF-CEM leukemia, 3.39 µM; in the experiment with PC-3 prostate it was 8.33 µM; with SK-MEL-28 melanoma it was 28.1 µM; in the experiment with MCF7 breast it was 5.11 µM; in the experiment on TK-10 renal, 13.7 µM. In addition, the GI50 with UO-31 renal was 24.1 µM; in the experiment on 786-0 renal, 15.5 µM; with RXF 393 renal, 36.3 µM; in the experiment with U251 CNS, 12.2 µM. In addition, the TGI stood at 56.6 µM in the experiment on RPMI-8226 leukemia; 18.3 µM in the experiment with CCRF-CEM leukemia; 28.3 µM in the experiment with PC-3 prostate; 79.4 µM in the experiment with SK-MEL-28 melanoma; 28.9 µM with MCF7 breast; 27.1 µM in the experiment with TK-10 renal. Further, the TGI with UO-31 renal is more than 100 µM; in the experiment on 786-0 renal it was 29.5 µM; in the experiment with RXF 393 renal, more than 100 µM; with U251 CNS, 25.3 µM.
